# How the values were obtained:
# Assay in all cases: CHIR dose: hematopoietic/erythroid differentiation of agitated hPSC-MC aggregates
# Assay type in all cases: cell-based, human
# [1] = system: IMR90 hiPSC line; conditions: for Erythroblast expansion Fold-expansion: optimal dose of CHIR-99021, 24 days in erythroblast expansion medium (static), cumulative
# Protocol: (§1) Human pluripotent stem cell-microcarrier (HPSC-MC) aggregates generated from different hPSC lines were differentiated using 3 different CHIR doses (5, 10 and 15 μM for 24 hours) and were evaluated for T-bra (day 2) and KDR+PDGFRβ− (day 4) expression by flow cytometry, induction of key hematopoietic transcription factors by RT-PCR (day 4), hematopoietic precursor expansion (day 14) and erythroblast expansion (day 42).
# (§2) Table 2—Hematopoietic differentiation of nine human pluripotent stem cell (hPSC) lines, from expansion in agitated microcarrier culture to erythroblast expansion—This table summarises the different stages of differentiation; hPSC expansion, mesoderm induction, hematopoietic precursor and erythroblast expansion of multiple hPSC-MC aggregate lines differentiated with optimal dose of CHIR-99021. Fold-expansion of hPSC-MC aggregates following 7 days of agitated culture, hematopoietic precursors following 14 days of culture in methylcellulose medium and erythroblast expansion following 24 days in expansion medium are reported. Flow cytometric evaluation of % T-bra+ cells on day 2 and % KDR+ cells on day 4 during mesoderm induction, % CD43+ cells during hematopoietic precursor expansion, % CD235a+ cells and fetal hemoglobin expression during erythroblast expansion stage are summarised. Total erythroid cells per hPSC seeded on day 42 was calculated as number of embryoid bodies derived on day 4 per hPSC seeded*erythroblast fold expansion*percent CD235a+ erythroblast.
# (§3) Analysis of Design of experiments (DoE) outcomes and evaluation of selected conditions generated by the MODDE® software allowed the development of an optimized protocol for hematopoietic mesoderm induction of human pluripotent stem cell-microcarrier (hPSC-MC) aggregates initially expanded under continuous agitation. Approximately 2 to 4 million hPSC-MC aggregates in 3 ml of Stemline® II medium were differentiated as follows: day 1; 30 ng/ml of BMP4, 50 ng/ml VEGF165, 12 μM CHIR-99021 (Selleck Chemicals, USA), 50 ng/ml Activin A, day 2; 30 ng/ml of BMP4, 50 ng/ml VEGF165, 50 ng/ml Activin A, day 3: 30 ng/ml of BMP4, 50 ng/ml VEGF165 and 20 ng/ml bFGF. Four days post-differentiation, single cells derived by TrypLE™ Express (ThermoFisher Scientific) treatment and strained through 40 μm cell strainers (Greiner Bio-one, Germany) were used for hematopoietic precursor and erythroblast expansion and erythroblast terminal maturation as detailed herein. Hematopoietic and erythroblast differentiation were monitored by flow cytometry, quantitative real-time PCR, immunoblotting and microscopic imaging. Oxygen binding affinity of differentiated erythroblast was determined using a Hemox Analyzer (TCS Scientific Corp, USA).
# (§4) HPSC-MC aggregates were dissociated into single cells by treatment with TrypLE. Express (ThermoFisher Scientific) for 5 minutes at 37° C., passed through 40 μm cell strainer (Greiner Bio-one), centrifuged at 1300 rpm for 3 minutes to pellet cells, and rinsed once with phosphate buffered saline (PBS) before re-suspension in Stemline II medium. Two hundred thousand cells in 100 μl of Stemline II medium were transferred to a 6-well ultra-low attachment plate and cultured with Blast growth medium (BGM) for 2 weeks in static conditions as detailed herein.
# (§5) Hematopoietic precursors were mixed with equal volume of Stemline II medium containing 50 ng/ml of SCF (STEMCELL. Technologies) and 3 U/ml EPO (Peprotech, USA), for an additional 7 days. Subsequently, cells were diluted 10-fold with PBS and pelleted by centrifugation at 3000 rpm for 10 minutes. […]
# [2] = system: D5 O-neg hiPSC line; conditions: for Erythroblast expansion Fold-expansion: optimal dose of CHIR-99021, 24 days in erythroblast expansion medium (static), cumulative
# Protocol: as §1, §2, §3, §4, §5
# [3] = system: hES-3 hESC line; conditions: for Erythroblast expansion Fold-expansion: optimal dose of CHIR-99021, 24 days in erythroblast expansion medium (static), cumulative
# Protocol: as §1, §2, §3, §4, §5
# [4] = system: BR2 O-neg hiPSC line
# Protocol: as §1, §2, §3, §4, §5
# [5] = system: D9 O-neg hiPSC line; conditions: for Erythroblast expansion Fold-expansion: optimal dose of CHIR-99021, 24 days in erythroblast expansion medium (static), cumulative
# Protocol: as §1, §2, §3, §4, §5
# [6] = system: BR7 O-neg hiPSC line; conditions: for Erythroblast expansion Fold-expansion: optimal dose of CHIR-99021, 24 days in erythroblast expansion medium (static), cumulative
# Protocol: as §1, §2, §3, §4, §5
# [7] = system: X13 O-neg hiPSC line; conditions: for Erythroblast expansion Fold-expansion: optimal dose of CHIR-99021, 24 days in erythroblast expansion medium (static), cumulative; for Total erythroid cells per hPSC seeded (day 42): optimal dose of CHIR-99021, CD235a+ erythroid cells
# Protocol: as §1, §2, §3, §4, §5
# [8] = 15 μM CHIR for 24 hours, day 2, flow cytometry
# [9] = 15 μM CHIR for 24 hours, day 4, flow cytometry
# [10] = optimal dose of CHIR-99021, 14 days in methyl cellulose medium
# [11] = optimal dose of CHIR-99021, 14 days in methyl cellulose medium (static)
# [12] = optimal dose of CHIR-99021, day 2
# [13] = optimal dose of CHIR-99021, erythroblast expansion stage
# [14] = optimal dose of CHIR-99021, fetal hemoglobin, flow cytometry
# [15] = 15 μM CHIR dose, day 14 post differentiation
smiles,measurement,setting,value
"Cc1c[nH]c(-c2cnc(NCCNc3ccc(C#N)cn3)nc2-c2ccc(Cl)cc2Cl)n1 [CHIR-99021, 6-[[2-[[4-(2,4-Dichlorophenyl)-5-(5-methyl-1H-imidazol-2-yl)-2-pyrimidinyl]amino]ethyl]amino]-3-pyridinecarbonitrile]",T-Bra+ cells,[1]; [8],17.22±7.4%
same,KDR+PDGFRβ- cells,[1]; [9],14.2±1.69%
same,Total erythroid cells per hPSC seeded (day 42),[1]; optimal dose of CHIR-99021,1300
same,Hematopoietic precursor expansion % CD43,[1]; [10],21.9%
same,Hematopoietic precursor expansion Fold-expansion,[1]; [11],7.9 fold
same,Erythroblast expansion Fold-expansion,[1]; day 42,918.1 fold
same,Erythroblast expansion Fold-expansion,"[1]; day 42, listed as CHIR",918.1±342.4 fold
same,Mesoderm induction % T-Bra,[1]; [12],17.2%
same,Erythroblast expansion % CD235a+,[1]; [13],75.9%
same,Erythroblast expansion Hemoglobin expression,[1]; [14],98.1
same,fold-expansion of hematopoietic precursors,[2]; [15],7.99±0.82 fold
same,T-Bra+ cells,[2]; [8],55.6±8.26%
same,KDR+PDGFRβ- cells,[2]; [9],35.77±1.53%
same,Total erythroid cells per hPSC seeded (day 42),[2]; optimal dose of CHIR-99021,2308
same,Hematopoietic precursor expansion % CD43,[2]; [10],27.7%
same,Hematopoietic precursor expansion Fold-expansion,[2]; [11],7.9 fold
same,Erythroblast expansion Fold-expansion,[2]; day 42,3712 fold
same,Erythroblast expansion Fold-expansion,"[2]; day 42, listed as CHIR",3712±1651 fold
same,Mesoderm induction % T-Bra,[2]; [12],55.6%
same,Erythroblast expansion % CD235a+,[2]; [13],74.6%
same,Erythroblast expansion Hemoglobin expression,[2]; [14],99.2
same,fold-expansion of hematopoietic precursors,[3]; [15],6.97±1.35 fold
same,T-Bra+ cells,[3]; [8],18±3.82%
same,KDR+PDGFRβ- cells,[3]; [9],14.6±0.81%
same,Total erythroid cells per hPSC seeded (day 42),[3]; optimal dose of CHIR-99021,244
same,Hematopoietic precursor expansion % CD43,[3]; [10],42.8%
same,Hematopoietic precursor expansion Fold-expansion,[3]; [11],6.9 fold
same,Erythroblast expansion Fold-expansion,[3]; day 42,324 fold
same,Erythroblast expansion Fold-expansion,"[3]; day 42, listed as CHIR",324±83.97 fold
same,Mesoderm induction % T-Bra,[3]; [12],18%
same,Erythroblast expansion % CD235a+,[3]; [13],78.5%
same,Erythroblast expansion Hemoglobin expression,[3]; [14],99.3
same,fold-expansion of hematopoietic precursors,[4]; [15],8.07±2.06 fold
same,T-Bra+ cells,[4]; [8],20.1±2.4%
same,KDR+PDGFRβ- cells,[4]; [9],24.07±1.34%
same,erythroblast differentiation,"[4]; erythroblast expansion medium, up to day 42",failed to differentiate into erythroid cells
same,Hematopoietic precursor expansion % CD43,[4]; [10],8.7%
same,Hematopoietic precursor expansion Fold-expansion,[4]; [11],8.1 fold
same,Mesoderm induction % T-Bra,[4]; [12],20.1%
same,Mesoderm induction % KDR+ PDGFRα−,"[4]; optimal dose of CHIR-99021, day 4",24.1%
same,T-Bra+ cells,[5]; [8],39±5.37%
same,KDR+PDGFRβ- cells,[5]; [9],18.07±0.6%
same,Total erythroid cells per hPSC seeded (day 42),[5]; optimal dose of CHIR-99021,63
same,Hematopoietic precursor expansion % CD43,[5]; [10],21.3%
same,Hematopoietic precursor expansion Fold-expansion,[5]; [11],6.0 fold
same,Erythroblast expansion Fold-expansion,[5]; day 42,121 fold
same,Erythroblast expansion Fold-expansion,"[5]; day 42, listed as CHIR",121.2±36.89 fold
same,Mesoderm induction % T-Bra,[5]; [12],41.8%
same,Erythroblast expansion % CD235a+,[5]; [13],57.5%
same,Erythroblast expansion Hemoglobin expression,[5]; [14],97.8
same,fold-expansion of hematopoietic precursors,[6]; [15],5.81±0.92 fold
same,T-Bra+ cells,[6]; [8],20.8±3.8%
same,KDR+PDGFRβ- cells,[6]; [9],18.6±1.57%
same,Total erythroid cells per hPSC seeded (day 42),[6]; optimal dose of CHIR-99021,12
same,Hematopoietic precursor expansion % CD43,[6]; [10],14.3%
same,Hematopoietic precursor expansion Fold-expansion,[6]; [11],5.8 fold
same,Erythroblast expansion Fold-expansion,[6]; day 42,31.5 fold
same,Erythroblast expansion Fold-expansion,"[6]; day 42, listed as CHIR",31.48±7.7 fold
same,Mesoderm induction % T-Bra,[6]; [12],20.8%
same,Erythroblast expansion % CD235a+,[6]; [13],33.8%
same,Erythroblast expansion Hemoglobin expression,[6]; [14],95.5
same,fold-expansion of hematopoietic precursors,[7]; [15],9.93±0.28 fold
same,T-Bra+ cells,[7]; [8],60.9±8.55%
same,KDR+PDGFRβ- cells,[7]; [9],40.8±1.34%
same,Hematopoietic precursor expansion % CD43,[7]; [10],43.9%
same,Hematopoietic precursor expansion Fold-expansion,[7]; [11],9.9 fold
same,Erythroblast expansion Fold-expansion,[7]; day 42,12605 fold
same,Erythroblast expansion Fold-expansion,"[7]; day 42, listed as CHIR",12605±2126 fold
same,Total erythroid cells per hPSC seeded (day 42),[7],7607
same,Total erythroid cells per hPSC seeded (day 42),[7]; listed as CHIR,7607±1016
same,Mesoderm induction % T-Bra,[7]; [12],60.9%
same,Erythroblast expansion % CD235a+,[7]; [13],67.4%
same,Erythroblast expansion Hemoglobin expression,[7]; [14],96.9

# From patent publication US12104173B2, “Method for differentiation of human pluripotent stem cell lines in suspension culture” (AGENCY FOR SCIENCE, TECHNOLOGY AND RESEARCH, priority 2018, dated 2024)
